Nine molecules from US12662464B2, “Degraders of cyclin-dependent kinase 12 (CDK12) and uses thereof” (DANA-FARBER CANCER INSTITUTE, INC., priority 2019, dated 2026) can be followed below.

The target of one series is T1, CDK12 (Homo sapiens, UniProt Q9NYV4).
T1 construct: endogenous in cells; host or cells: Jurkat (human T-ALL)
Put plainly: CDK12 degradation by Western blotting. Particulars: degradation of CDK12 at 100 nM. Type of series: cell-based. How it is done:
Cells treated with DMSO or with the CDK12 degraders BSJ-04-023, BSJ-04-071, BSJ-04-076, BSJ-04-077, BSJ-04-078, BSJ-04-079, and BSJ-04-100 at the indicated concentrations were collected and examined with Western blots at 6 hours.
Cells treated with DMSO or with the CDK12 degraders BSJ-04-023, BSJ-04-086, BSJ-04-089, BSJ-04-098, BSJ-04-099, and BSJ-04-100 at the indicated concentrations were collected and examined with Western blots at 6 hours.
Assays for the degradation of CDK12 by exemplary compounds of Formula (I) were conducted. The results for the assays for the degradation of CDK12 by exemplary CDK12 degrader compounds depicted in Table 1 are shown in FIGS. 1-3.

A short description of series [1]: Pharmacokinetic study, single IV injection in mice. The settings on record: 2 mg/kg IV, male C57BI/6 mice, plasma. It counts as in vivo. On the procedure:
Standard pharmacokinetic parameters were determined by administration of exemplary compound BSJ-05-063 to male C57BI/6 mice, and conducting standard pharmacokinetic studies. A single 2 mg/kg intravenous (IV) injection of compound BSJ-05-063 solution in […] DMSO/Cremophor EL® (oxirane, propane-1,2,3-triol)/water was delivered, and the pharmacokinetic parameters were evaluated. The plasma concentrations of BSJ-05-063 were reported at each of the 8 time points (5 minutes, 15 minutes, 30 minutes, 1 hours, 2 hours, 4 hours, 6 hours, and 8 hours post-dosing) are the average values from 3 test animals (male C57BI/6 mice).

Another series deals with CDK12, CDK13, CDK9. Kind of series: Rescue of degradation by pre-treatment, Western blot in Jurkat and Molt 4 cells. Type of series: cell-based, human. Particulars: 2 hour pre-treatment with THZ-5-31, Carfilzomib, thalidomide or MLN4924, then 250 nM for 6 hours. On the procedure: FIGS. 1-3 show the degradation rescued by pre-treatment with Carlfilzomib and exemplary CDK12 irreversible inhibitor, THZ-5-31
The degradation of CDK12, CDK13, CDK9 was rescued by 2 hour pre-treatment with exemplary CDK12 inhibitor THZ-5-31, exemplary […] Carfilzomib (CFZ), thalidomide (Thal.) and MLN4924 (inhibitor of NEDD8-Activating Enzyme (NAE)) at the indicated concentrations before treatment with exemplary CDK12 inhibitor BSJ-0423 (BSJ-04-023) at 250 nM for 6 hours. BSJ-04-023 is of formula: […]
(In western blotting, separated proteins are transferred to a membrane and probed.)

Usually Tmax stands for the time from dosing to the highest level.

T1 sequence (Q9NYV4 whole entry): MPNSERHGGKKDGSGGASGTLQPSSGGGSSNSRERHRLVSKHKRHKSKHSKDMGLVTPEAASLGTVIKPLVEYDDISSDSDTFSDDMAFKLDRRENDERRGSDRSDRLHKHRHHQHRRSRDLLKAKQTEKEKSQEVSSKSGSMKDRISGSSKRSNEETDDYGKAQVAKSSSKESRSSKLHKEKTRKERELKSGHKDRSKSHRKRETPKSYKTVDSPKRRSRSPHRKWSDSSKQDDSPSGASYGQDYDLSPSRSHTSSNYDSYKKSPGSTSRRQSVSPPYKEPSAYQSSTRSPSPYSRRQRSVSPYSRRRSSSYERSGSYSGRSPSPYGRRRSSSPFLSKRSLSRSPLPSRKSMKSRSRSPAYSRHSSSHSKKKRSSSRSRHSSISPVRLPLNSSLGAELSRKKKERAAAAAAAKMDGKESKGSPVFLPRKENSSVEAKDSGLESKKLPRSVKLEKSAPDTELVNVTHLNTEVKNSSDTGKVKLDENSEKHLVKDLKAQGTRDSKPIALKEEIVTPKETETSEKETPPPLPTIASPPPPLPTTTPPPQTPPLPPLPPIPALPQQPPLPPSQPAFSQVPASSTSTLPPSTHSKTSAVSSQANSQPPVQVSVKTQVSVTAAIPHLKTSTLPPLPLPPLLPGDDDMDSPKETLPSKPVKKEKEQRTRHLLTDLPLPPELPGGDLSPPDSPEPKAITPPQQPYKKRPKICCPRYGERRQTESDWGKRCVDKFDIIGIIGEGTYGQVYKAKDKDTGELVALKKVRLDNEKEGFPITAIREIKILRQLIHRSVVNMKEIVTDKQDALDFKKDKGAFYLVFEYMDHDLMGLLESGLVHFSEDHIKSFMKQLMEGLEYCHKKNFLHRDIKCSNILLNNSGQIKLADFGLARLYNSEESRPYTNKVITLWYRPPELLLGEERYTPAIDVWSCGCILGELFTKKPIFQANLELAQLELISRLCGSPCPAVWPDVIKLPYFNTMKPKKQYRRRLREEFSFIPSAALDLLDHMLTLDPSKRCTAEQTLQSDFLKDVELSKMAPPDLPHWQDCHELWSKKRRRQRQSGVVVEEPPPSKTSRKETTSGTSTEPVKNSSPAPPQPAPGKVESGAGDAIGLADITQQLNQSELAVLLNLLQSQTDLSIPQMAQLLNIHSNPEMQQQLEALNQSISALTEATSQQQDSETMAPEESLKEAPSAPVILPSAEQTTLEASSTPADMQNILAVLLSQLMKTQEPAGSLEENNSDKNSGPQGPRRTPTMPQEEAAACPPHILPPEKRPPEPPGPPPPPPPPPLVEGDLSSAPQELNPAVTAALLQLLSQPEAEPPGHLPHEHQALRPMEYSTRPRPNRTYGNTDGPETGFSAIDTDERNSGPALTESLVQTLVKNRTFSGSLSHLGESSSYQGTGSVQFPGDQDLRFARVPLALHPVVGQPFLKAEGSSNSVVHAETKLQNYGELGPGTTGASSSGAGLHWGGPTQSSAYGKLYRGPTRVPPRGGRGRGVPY
T1 sequence (O75909 whole entry partner): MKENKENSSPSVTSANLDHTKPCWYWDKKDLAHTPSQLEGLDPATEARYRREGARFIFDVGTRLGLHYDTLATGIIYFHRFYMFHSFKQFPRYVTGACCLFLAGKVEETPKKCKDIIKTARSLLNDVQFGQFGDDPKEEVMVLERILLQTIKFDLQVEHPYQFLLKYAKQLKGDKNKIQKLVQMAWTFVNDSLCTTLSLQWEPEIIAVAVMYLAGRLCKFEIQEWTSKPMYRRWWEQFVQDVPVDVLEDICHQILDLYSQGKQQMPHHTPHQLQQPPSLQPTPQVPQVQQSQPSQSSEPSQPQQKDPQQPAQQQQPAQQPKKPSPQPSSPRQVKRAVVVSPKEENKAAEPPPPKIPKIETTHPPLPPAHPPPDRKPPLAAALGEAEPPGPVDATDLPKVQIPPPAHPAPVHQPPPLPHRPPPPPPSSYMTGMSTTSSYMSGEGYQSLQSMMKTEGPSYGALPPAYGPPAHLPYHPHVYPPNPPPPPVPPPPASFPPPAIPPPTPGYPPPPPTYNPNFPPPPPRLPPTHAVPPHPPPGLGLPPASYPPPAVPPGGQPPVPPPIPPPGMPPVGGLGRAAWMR

In the case of `O=C(COc1cccc2c1C(=O)N(C1CCC(=O)NC1=O)C2=O)NCCOCCOCCOCCN1CCC[C@@H](Nc2ncc(Cl)c(-c3c[nH]c4ccccc34)n2)C1` (stereo partly drawn) [Compound 1-5, N-(2-(2-(2-(2-((R)-3-((5-chloro-4-(1H-indol-3-yl)pyrimidin-2-yl)amino)piperidin-1-yl)ethoxy)ethoxy)ethoxy)ethyl)-2-((2-(2,6-dioxopiperidin-3-yl)-1,3-dioxoisoindolin-4-yl)oxy)acetamide], the CDK12 degradation activity entry at CDK12 is recorded as “++ (“++” indicates 80% degradation)”.

Regarding `O=C(COc1cccc2c1C(=O)N(C1CCC(=O)NC1=O)C2=O)NCCCCCN1CCN(c2ccc(C(=O)N3CCC[C@@H](Nc4ncc(Cl)c(-c5c[nH]c6ccccc56)n4)C3)cc2)CC1` (stereo partly drawn) [Compound 1-9, N-(5-(4-(4-((R)-3-((5-chloro-4-(1H-indol-3-yl)pyrimidin-2-yl)amino)piperidine-1-carbonyl)phenyl)piperazin-1-yl)pentyl)-2-((2-(2,6-dioxopiperidin-3-yl)-1,3-dioxoisoindolin-4-yl)oxy)acetamide], the CDK12 degradation activity result on CDK12 is “++ (“++” indicates 80% degradation)”.

Take `O=C(COc1cccc2c1C(=O)N(C1CCC(=O)NC1=O)C2=O)NCCCN1CCN(c2ccc(C(=O)N3CCC[C@@H](Nc4ncc(Cl)c(-c5c[nH]c6ccccc56)n4)C3)cc2)CC1` (stereo partly drawn) [Compound 1-10, N-(3-(4-(4-((R)-3-((5-chloro-4-(1H-indol-3-yl)pyrimidin-2-yl)amino)piperidine-1-carbonyl)phenyl)piperazin-1-yl)propyl)-2-((2-(2,6-dioxopiperidin-3-yl)-1,3-dioxoisoindolin-4-yl)oxy)acetamide]: on CDK12, the CDK12 degradation activity result was “+ (“+” indicates 60% degradation of CDK12 at 100 nM)”.

On to `O=C(COc1cccc2c1C(=O)N(C1CCC(=O)NC1=O)C2=O)NCCCCCCCN1CCC(C(=O)N2CCC[C@@H](Nc3ncc(Cl)c(-c4c[nH]c5ccccc45)n3)C2)CC1` (stereo partly drawn) [Compound 1-12, N-(7-(4-((R)-3-((5-chloro-4-(1H-indol-3-yl)pyrimidin-2-yl)amino)piperidine-1-carbonyl)piperidin-1-yl)heptyl)-2-((2-(2,6-dioxopiperidin-3-yl)-1,3-dioxoisoindolin-4-yl)oxy)acetamide], for which, at CDK12, the CDK12 degradation activity entry is recorded as “++ (“++” indicates 80% degradation)”.

Regarding `CC(C)S(=O)(=O)c1ccccc1Nc1nc(N[C@@H]2CCCN(CCCCCCCNC(=O)COc3cccc4c3C(=O)N(C3CCC(=O)NC3=O)C4=O)C2)ncc1Cl` (stereo partly drawn) [Compound 1-14, N-(7-((R)-3-((5-chloro-4-((2-(isopropylsulfonyl)phenyl)amino)pyrimidin-2-yl)amino)piperidin-1-yl)heptyl)-2-((2-(2,6-dioxopiperidin-3-yl)-1,3-dioxoisoindolin-4-yl)oxy)acetamide], the CDK12 degradation activity result on CDK12 is on record as “+++ (“+++” indicates a greater than 90% degradation)”.

For `Cc1ncsc1-c1ccc([C@H](C)NC(=O)[C@@H]2C[C@@H](O)CN2C(=O)[C@@H](NC(=O)CCCCCCCCCCN2CCC[C@@H](Nc3ncc(Cl)c(Nc4ccccc4S(=O)(=O)C(C)C)n3)C2)C(C)(C)C)cc1` [Compound 1-15, (2S,4R)-1-((S)-2-(11-((R)-3-((5-chloro-4-((2-(isopropylsulfonyl)phenyl)amino)pyrimidin-2-yl)amino)piperidin-1-yl)undecanamido)-3,3-dimethylbutanoyl)-4-hydroxy-N—((S)-1-(4-(4-methylthiazol-5-yl)phenyl)ethyl)pyrrolidine-2-carboxamide], the CDK12 degradation activity entry at CDK12 is “+++ (“+++” indicates a greater than 90% degradation)”. Also, in series [1], the “AUC % Extrap” value is listed as 6.27 % Extrap, the AUCINF_obs amounted to 368545 ng·min/mL, the Cl_obs came out at 6.04 mL/min/kg and the MRTINF_obs was 2.41 h. Besides, in series [1], the T1/2 is 2.21 h, the Tmax was 4.8 min and the Vss_obs turned out to be 0.84 L/kg.

Regarding `Cc1ncsc1-c1ccc([C@H](C)NC(=O)[C@@H]2C[C@@H](O)CN2C(=O)[C@@H](NC(=O)CCOCCOCCOCCN2CCC[C@@H](Nc3ncc(Cl)c(Nc4ccccc4S(=O)(=O)C(C)C)n3)C2)C(C)(C)C)cc1` [Compound 1-16, (2S,4R)-1-((S)-14-(tert-butyl)-1-((R)-3-((5-chloro-4-((2-(isopropylsulfonyl)phenyl)amino)pyrimidin-2-yl)amino)piperidin-1-yl)-12-oxo-3,6,9-trioxa-13-azapentadecan-15-oyl)-4-hydroxy-N—((S)-1-(4-(4-methylthiazol-5-yl)phenyl)ethyl)pyrrolidine-2-carboxamide], at CDK12, the CDK12 degradation activity result is reported as “+++ (“+++” indicates a greater than 90% degradation)”.

Turning to `O=C(COc1cccc2c1C(=O)N(C1CCC(=O)NC1=O)C2=O)NCCCCCCCN1CCC[C@@H](Nc2ncc(Cl)c(-c3c[nH]c4ccccc34)n2)C1` (stereo partly drawn) [Compound I-1, N-(7-((R)-3-((5-chloro-4-(1H-indol-3-yl)pyrimidin-2-yl)amino)piperidin-1-yl)heptyl)-2-((2-(2,6-dioxopiperidin-3-yl)-1,3-dioxoisoindolin-4-yl)oxy)acetamide], the CDK12 degradation activity entry at CDK12 is recorded as “+++ (“+++” indicates a greater than 90% degradation)”. Further, the “degradation of CDK12, CDK13, CDK9 after pre-treatment” value with CDK12, CDK13, CDK9 is “rescued”.

`O=C(COc1cccc2c1C(=O)N(C1CCC(=O)NC1=O)C2=O)NCCCCCCN1CCC[C@@H](Nc2ncc(Cl)c(-c3c[nH]c4ccccc34)n2)C1` (stereo partly drawn) [Compound I-2, N-(6-((R)-3-((5-chloro-4-(1H-indol-3-yl)pyrimidin-2-yl)amino)piperidin-1-yl)hexyl)-2-((2-(2,6-dioxopiperidin-3-yl)-1,3-dioxoisoindolin-4-yl)oxy)acetamide]: at CDK12, the CDK12 degradation activity result is on record as “++ (“++” indicates 80% degradation)”.
